# Measured values reported in patent publication US6376497B1, “Antifungal azole derivatives having a fluorinated vinyl group and process for preparing same” (Korea Research Institute of Chemical Technology, priority 1999, dated 2002).
# Key:
# Test in all cases: In vitro antifungal activity, microbroth dilution MIC
# Type in all cases: cell-based
# Candida albicans C1-2 = details: 4 to 48 hours; for Minimal inhibitory concentration (MIC): C. albicans C1-2, RPMI-1640, 35° C.
# Procedure, shortened: (§1)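 Broth microdilution adapted from NCCLS M27, in RPMI-1640 with 0.165 M MOPS, pH 7.0. Yeast or mould inoculum at 2×10^3 CFU/ml was mixed 1:1 with DMSO-derived compound solutions (200 to 0.10 μg/ml before mixing) and incubated at 35 °C for 4 to 48 h. MIC was the concentration showing no growth.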
# [1] = test system: Cryptococcus neoformans B. 42419; details: 4 to 48 hours; for Minimal inhibitory concentration (MIC): Cry. neoformans B. 42419, RPMI-1640, 35° C.
# Procedure, shortened: as §1
# Candida krusei K. 11655 = details: 4 to 48 hours; for Minimal inhibitory concentration (MIC): C. krusei K. 11655, RPMI-1640, 35° C.
# Procedure, shortened: as §1
# [2] = test system: Candida parapsitosis A. 7330; details: 4 to 48 hours; for Minimal inhibitory concentration (MIC): C. parapsitosis A. 7330, RPMI-1640, 35° C.
# Procedure, shortened: as §1
# [3] = test system: Cryptococcus neoformans IFM. 40092; details: 4 to 48 hours; for Minimal inhibitory concentration (MIC): Cry. neoformans IFM. 40092, RPMI-1640, 35° C.
# Procedure, shortened: as §1
# [4] = test system: Candida pseudotropicalis K. 11658; details: 4 to 48 hours; for Minimal inhibitory concentration (MIC): C. pseudotropicalis K. 11658, RPMI-1640, 35° C.
# Procedure, shortened: as §1
# [5] = test system: Candida albicans IFO. 1385; details: 4 to 48 hours; for Minimal inhibitory concentration (MIC): C. albicans IFO. 1385, RPMI-1640, 35° C.
# Procedure, shortened: as §1
# [6] = test system: Torulopsis glabrata B. 16205; details: 4 to 48 hours; for Minimal inhibitory concentration (MIC): T. glabrata B. 16205, RPMI-1640, 35° C.
# Procedure, shortened: as §1
# [7] = test system: Trichophyton mentagrophytes A. 9129; details: 4 to 48 hours; for Minimal inhibitory concentration (MIC): T. mentagrophytes A. 9129, RPMI-1640, 35° C.
# Procedure, shortened: as §1
# [8] = test system: Trichophyton mentagrophytes B. 32663; details: 4 to 48 hours; for Minimal inhibitory concentration (MIC): T. mentagrophytes B. 32663, RPMI-1640, 35° C.
# Procedure, shortened: as §1
# [9] = test system: Cryptococcus neoformans A. 34144; details: 4 to 48 hours; for Minimal inhibitory concentration (MIC): Cry. neoformans A. 34144, RPMI-1640, 35° C.
# Procedure, shortened: as §1
# [10] = test system: Aspergillus furnigatus B. 19119; details: 4 to 48 hours; for Minimal inhibitory concentration (MIC): A furnigatus B. 19119, RPMI-1640, 35° C.
# Procedure, shortened: as §1
# [11] = test system: Candida albicans A. 10231; details: 4 to 48 hours; for Minimal inhibitory concentration (MIC): C. albicans A. 10231, RPMI-1640, 35° C.
# Procedure, shortened: as §1
# [12] = test system: Aspergillus niger A. 16404; details: 4 to 48 hours; for Minimal inhibitory concentration (MIC): A. niger A. 16404, RPMI-1640, 35° C.
# Procedure, shortened: as §1
# [13] = test system: Candida tropicalis A. 13803; details: 4 to 48 hours; for Minimal inhibitory concentration (MIC): C. tropicalis A. 13803, RPMI-1640, 35° C.
# Procedure, shortened: as §1
# [14] = RPMI-1640, 35° C., no growth observed
SMILES,Minimal inhibitory concentration (MIC) (Candida albicans C1-2),Minimal inhibitory concentration (MIC) [1],Minimal inhibitory concentration (MIC) (Candida krusei K. 11655),Minimal inhibitory concentration (MIC) [2],Minimal inhibitory concentration (MIC) [3],Minimal inhibitory concentration (MIC) [4],Minimal inhibitory concentration (MIC) [5],Minimal inhibitory concentration (MIC) [6],Minimal inhibitory concentration (MIC) [7],Minimal inhibitory concentration (MIC) [8],Minimal inhibitory concentration (MIC) [9],Minimal inhibitory concentration (MIC) [10],Minimal inhibitory concentration (MIC) [11],Minimal inhibitory concentration (MIC) [12],Minimal inhibitory concentration (MIC) [13],other results
FC(Oc1ccc(OCC2COC(Cn3cncn3)(c3ccc(Cl)cc3Cl)O2)cc1)=C(c1ccccc1)C(F)(F)F (mixture of isomers) [Ex. 119],–,–,–,–,–,–,–,–,–,–,–,–,–,–,–,"Minimal inhibitory concentration(MIC), C. albicans C1-2 (Candida albicans C1-2; [14]): 25.0 µg/mL; Minimal inhibitory concentration(MIC), Cry. neoformans B. 42419 [1, 14]: 1.56 µg/mL; Minimal inhibitory concentration(MIC), C. krusei K. 11655 (Candida krusei K. 11655; [14]): >100 µg/mL; Minimal inhibitory concentration(MIC), C. parapsitosis A. 7330 [2, 14]: >100 µg/mL; Minimal inhibitory concentration(MIC), Cry. neoformans IFM. 40092 [3, 14]: 0.39 µg/mL; Minimal inhibitory concentration(MIC), C. pseudotropicalis K. 11658 [4, 14]: >100 µg/mL; Minimal inhibitory concentration(MIC), C. albicans IFO. 1385 [5, 14]: 1.56 µg/mL; Minimal inhibitory concentration(MIC), T. glabrata B. 16205 [6, 14]: 50.0 µg/mL; Minimal inhibitory concentration(MIC), T. mentagrophytes A. 9129 [7, 14]: 6.25 µg/mL; Minimal inhibitory concentration(MIC), T. mentagrophytes B. 32663 [8, 14]: 3.13 µg/mL; Minimal inhibitory concentration(MIC), Cry. neoformans A. 34144 [9, 14]: 1.56 µg/mL; Minimal inhibitory concentration(MIC), A furnigatus B. 19119 [10, 14]: >100 µg/mL; Minimal inhibitory concentration(MIC), C. albicans A. 10231 [11, 14]: 50.0 µg/mL; Minimal inhibitory concentration(MIC), A. niger A. 16404 [12, 14]: >100 µg/mL; Minimal inhibitory concentration(MIC), C. tropicalis A. 13803 [13, 14]: >100 µg/mL"
FC(OCC1COC(Cn2ccnc2)(c2ccc(F)cc2F)O1)=C(c1cccc(C(F)(F)F)c1)C(F)(F)F (mixture of isomers) [Ex. 58],25.0 µg/mL,1.56 µg/mL,100 µg/mL,>100 µg/mL,0.39 µg/mL,50.0 µg/mL,0.78 µg/mL,6.25 µg/mL,12.5 µg/mL,6.25 µg/mL,1.56 µg/mL,25.0 µg/mL,25.0 µg/mL,>100 µg/mL,>100 µg/mL,–
COc1ccc(C=C(F)OCC2COC(Cn3ccnc3)(c3ccc(Cl)cc3Cl)O2)cc1 (stereo not drawn) [Ex. 9],25.0 µg/mL,1.56 µg/mL,6.25 µg/mL,12.5 µg/mL,0.78 µg/mL,6.25 µg/mL,1.56 µg/mL,6.25 µg/mL,3.13 µg/mL,1.56 µg/mL,3.13 µg/mL,6.25 µg/mL,12.5 µg/mL,6.25 µg/mL,25.0 µg/mL,–
Cc1ccc(C=C(F)OCC2COC(Cn3ccnc3)(c3ccc(Cl)cc3Cl)O2)cc1C (stereo not drawn) [Ex. 5],12.5 µg/mL,3.13 µg/mL,12.5 µg/mL,12.5 µg/mL,1.56 µg/mL,12.5 µg/mL,0.78 µg/mL,6.25 µg/mL,3.13 µg/mL,3.13 µg/mL,3.13 µg/mL,6.25 µg/mL,12.5 µg/mL,6.25 µg/mL,12.5 µg/mL,–
